The values below come from US20210244791A1, “APPLICATION OF PEDF-DERIVED SHORT PEPTIDES IN TENDON HEALING” (BRIM Biotechnology, Inc., priority 2018, published 2021).

For this test, the system named is injured Achilles tendon. Nature of the test: Rat model of Achilles tendon injury, histology (H&E) and histopathological score. The format is in vivo. Conditions: 1 week postoperative. From the text:
Representative micrographs of the histopathological analysis by H&E staining. H&E-stained sections in higher magnification show uninjured tendon tissue with a relative scarcity of cells among the collagen fibers.
(A) Representative H&E-stained longitudinal sections in higher magnification show the nuclei morphologies in uninjured tendon tissue and injured tendon treated with vehicle/alginate and 29-mer/alginate for 1 week. (B) Histopathological scores. Total scores were determining by fiber structure, fiber arrangement, rounding of the nuclei, resident cell density and inflammation (infiltration of inflammatory cells, neovascularization and fatty deposits). Data are reported as mean±SE. *P<0.0005 versus vehicle/alginate-treated tendon; ^#P<0.05 versus 29-mer/alginate-treated tendon.
To investigate the effects of the 29-mer peptide on tendon healing, a rat model of Achilles tendon injury was established as reported by Orhan et al. (The effect of extracorporeal shock waves on a rat model of injury to tendon Achilles. A histological and biomechanical study. J. Bone Joint Surg. Br. 2004;.86(4):.613-618). Adult 10-week-old male Sprague-Dawley rats (initial body weight=312±11 g) were anesthetized by an intraperitoneal injection of xylazine (10 mg/kg). Then, the left tendo Achilles injury was created by full-thickness insertion of an 18-G needle through tendo Achilles 1 cm proximal to the calcaneum attachment site. This created a horizontal wound that was flanked by intact tendon tissue to prevent the retraction of severed ends. The skin incision was closed after the wound was irrigated with sterile saline. Treatments were applied to area around the tendon lesion by subcutaneous injection with 150 μl of alginate gel mixed with 100 μM 29-mer or DMSO vehicle (six rats per experimental condition).
The tendon and surrounding soft tissue were dissected. Specimens were fixed in a 4% paraformaldehyde (PFA) solution and then were embedded in paraffin blocks. Sections (5 μm in thickness) were longitudinally cut and stained with hematoxylin and eosin (H&E) or used for immunohistochemical examination. 36 sections per tendon were carefully prepared so as to include the most severely degenerated area. Images were captured using a Nikon Eclipse 80i microscope (Nikon Corporation, Tokyo, Japan) equipped with a Leica DC 500 camera (Leica Microsystems, Wetzlar, Germany). Four sections of each sample containing injured tendon tissues were selected and evaluated by two blinded observers to assess the tendon morphology according to a modified semi-quantitative grading score from 0 to 3 proposed by Chen et al. (Tendon derived stem cells promote platelet-rich plasma healing in collagenase-induced rat Achilles tendinopathy. Cell Physiol. Biochem., 2014; 34(6): 2153-68). The scores analyzed the fiber structure (0-3), fiber arrangement (0-3), rounding of the nuclei (0-3), resident cell density (0-3), and inflammation (0-3; infiltration of inflammatory cells, neovascularization and fatty deposits). According to this grading system, a perfectly normal tendon obtained a score of 0, whereas a score of 15 was assigned to maximally abnormal tendons.
To investigate the therapeutic effect of the 29-mer peptide on injured tendon, a rat model of Achilles tendon injury was established by full-thickness insertion of an 18-G needle through the tendon Achilles. We delivered the 29-mer in a 150 μl alginate gel, which releases 90% loaded 29-mer in 5 days as described in a previous protocol (Ho et al., PEDF-derived peptide promotes skeletal muscle regeneration through its mitogenic effect on muscle progenitor cells. Am J Physiol. Cell Physiol. 2015 Aug. 1; 309(3): C159-68).

Regarding “SLGAEQRTESIIHRALYYDLISSPDIHGT (listed as Homo sapiens) [29-mer, PEDF-derived short peptide, human PEDF residues 93-121]”, the total histopathological score (peptide/alginate gel, 0 = normal tendon, 15 = maximally abnormal, vehicle/alginate 12.7±0.6) is 7.9±0.4. In addition, the “histological appearance of treated tendon (H&E staining)” value (subcutaneous 150 μl alginate gel with 100 μM peptide) was “uniform appearance of well-aligned collagen fibers”.
